The source made the active and inactive calls.
Key:
[1] = target: Peroxisome proliferator-activated receptor gamma/Nuclear receptor coactivator 3 (Homo sapiens, UniProt P37231); type: functional;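 note: agonist potency for raising coactivator recruitment to the receptor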
[2] = target: Peroxisome proliferator-activated receptor gamma/Nuclear receptor coactivator 1 (Homo sapiens, UniProt P37231); type: functional;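 note: agonist potency as compounds enhance coactivator SRC-1 recruitment to PPARgamma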
[3] = target: Peroxisome proliferator-activated receptor gamma/Nuclear receptor coactivator 2 (Homo sapiens, UniProt P37231); type: functional;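 note: agonist potency for raising coactivator recruitment to the receptor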
Chain of Peroxisome proliferator-activated receptor gamma/Nuclear receptor coactivator 2 (P37231 whole entry): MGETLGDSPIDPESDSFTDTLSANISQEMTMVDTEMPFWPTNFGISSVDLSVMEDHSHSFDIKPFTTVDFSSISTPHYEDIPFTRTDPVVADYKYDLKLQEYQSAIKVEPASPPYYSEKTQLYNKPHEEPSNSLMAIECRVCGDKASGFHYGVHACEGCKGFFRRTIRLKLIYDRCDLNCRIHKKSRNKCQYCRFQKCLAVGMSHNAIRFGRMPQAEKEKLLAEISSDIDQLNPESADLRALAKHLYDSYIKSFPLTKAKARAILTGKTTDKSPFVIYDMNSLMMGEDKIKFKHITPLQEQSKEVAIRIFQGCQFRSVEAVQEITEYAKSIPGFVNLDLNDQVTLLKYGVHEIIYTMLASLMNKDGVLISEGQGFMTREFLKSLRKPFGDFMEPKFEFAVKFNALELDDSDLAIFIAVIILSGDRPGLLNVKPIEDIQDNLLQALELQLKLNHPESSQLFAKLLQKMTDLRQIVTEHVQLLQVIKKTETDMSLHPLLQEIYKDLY
Chain of Peroxisome proliferator-activated receptor gamma/Nuclear receptor coactivator 2 (Q15596 whole entry, further chain): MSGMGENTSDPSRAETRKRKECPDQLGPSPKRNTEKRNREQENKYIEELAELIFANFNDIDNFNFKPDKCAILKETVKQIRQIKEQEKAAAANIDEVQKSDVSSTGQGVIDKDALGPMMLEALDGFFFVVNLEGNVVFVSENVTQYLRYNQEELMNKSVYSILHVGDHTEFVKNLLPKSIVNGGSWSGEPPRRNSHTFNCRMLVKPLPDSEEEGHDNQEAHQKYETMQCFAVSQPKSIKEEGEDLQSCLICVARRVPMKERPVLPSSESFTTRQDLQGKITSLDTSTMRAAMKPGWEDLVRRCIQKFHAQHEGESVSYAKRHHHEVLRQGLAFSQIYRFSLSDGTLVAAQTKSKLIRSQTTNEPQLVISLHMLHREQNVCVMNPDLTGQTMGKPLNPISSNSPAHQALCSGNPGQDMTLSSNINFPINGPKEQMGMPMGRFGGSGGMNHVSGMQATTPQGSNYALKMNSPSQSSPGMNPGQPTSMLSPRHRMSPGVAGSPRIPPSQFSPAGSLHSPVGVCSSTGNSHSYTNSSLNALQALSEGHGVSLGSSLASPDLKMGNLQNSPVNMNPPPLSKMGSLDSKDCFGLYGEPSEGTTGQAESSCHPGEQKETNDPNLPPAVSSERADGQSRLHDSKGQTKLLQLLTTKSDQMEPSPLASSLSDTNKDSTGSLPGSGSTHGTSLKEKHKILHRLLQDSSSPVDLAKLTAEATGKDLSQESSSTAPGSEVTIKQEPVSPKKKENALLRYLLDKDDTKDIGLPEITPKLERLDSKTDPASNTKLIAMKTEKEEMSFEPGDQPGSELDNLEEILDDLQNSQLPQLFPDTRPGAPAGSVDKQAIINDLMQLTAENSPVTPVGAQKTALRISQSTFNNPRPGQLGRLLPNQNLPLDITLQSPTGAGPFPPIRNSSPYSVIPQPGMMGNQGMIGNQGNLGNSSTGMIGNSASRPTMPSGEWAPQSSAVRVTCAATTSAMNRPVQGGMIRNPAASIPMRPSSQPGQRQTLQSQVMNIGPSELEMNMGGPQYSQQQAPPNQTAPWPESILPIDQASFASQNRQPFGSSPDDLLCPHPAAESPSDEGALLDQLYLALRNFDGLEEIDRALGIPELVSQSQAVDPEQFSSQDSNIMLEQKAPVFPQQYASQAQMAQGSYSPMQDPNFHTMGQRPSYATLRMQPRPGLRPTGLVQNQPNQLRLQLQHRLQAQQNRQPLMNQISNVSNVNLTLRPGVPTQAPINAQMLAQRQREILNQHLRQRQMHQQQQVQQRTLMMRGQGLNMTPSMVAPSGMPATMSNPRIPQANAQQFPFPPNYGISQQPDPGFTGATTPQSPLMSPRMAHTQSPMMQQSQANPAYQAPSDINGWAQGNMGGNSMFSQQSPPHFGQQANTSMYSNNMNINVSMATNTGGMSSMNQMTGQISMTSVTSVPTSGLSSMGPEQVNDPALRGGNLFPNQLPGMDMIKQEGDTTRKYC

[4] = target: Induced myeloid leukemia cell differentiation protein Mcl-1 (Homo sapiens, UniProt Q07820); type: functional
Chain of Induced myeloid leukemia cell differentiation protein Mcl-1 (Q07820 whole entry): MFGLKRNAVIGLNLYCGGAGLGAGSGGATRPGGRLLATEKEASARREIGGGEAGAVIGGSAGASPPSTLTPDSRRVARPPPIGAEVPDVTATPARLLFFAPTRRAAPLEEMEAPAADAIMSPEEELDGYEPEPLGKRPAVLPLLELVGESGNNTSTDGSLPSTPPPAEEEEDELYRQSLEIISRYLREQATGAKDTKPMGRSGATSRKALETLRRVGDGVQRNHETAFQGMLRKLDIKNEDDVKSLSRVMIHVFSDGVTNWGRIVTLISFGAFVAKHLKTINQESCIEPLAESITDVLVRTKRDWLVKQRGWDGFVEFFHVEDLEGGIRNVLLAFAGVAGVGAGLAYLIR

Prothrombin = Prothrombin (Homo sapiens, UniProt P00734); experiment: Thrombin 1536 HTS Dose Response Confirmation. [Related pubchem assays: 1046 (Thrombin 1536 HTS; hits were confirmed in this assay)]; type: functional
[5] = target: T1, Voltage-gated N-type calcium channel alpha-1B subunit/Amyloid beta A4 precursor protein-binding family A member 1 (Homo sapiens, UniProt Q00975+Q02410); type: protein assay
[6] = target: T1, Voltage-gated N-type calcium channel alpha-1B subunit/Amyloid beta A4 precursor protein-binding family A member 1; type: protein assay; remark: listed apart in the source
[7] = Shn3 3'UTR reporter inhibitors, dose response, cell-based, Clone20 osteoblasts, firefly luciferase, cherry-picked (AID 624132); type: functional;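 note: firefly luciferase luminescence from reporter carrying the Shn3 3'UTR in osteoblasts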
[8] = HepG2 cell cytotoxicity, dose response, cytotoxicity control for Shn3 inhibitor project, CellTiter-Glo, cherry-picked (AID 624134); type: functional, cell-based
[9] = control 3'UTR Renilla luciferase suppression, dose response, counter-screen for Shn3 inhibitor project, cell-based, Clone20-Shn3RL, cherry-picked (AID 624133); type: functional
[10] = target: Heat shock protein HSP 90-alpha (Homo sapiens, UniProt P07900); type: functional, organism-based
INS1 = experiment: beta cell apoptosis inhibitors, cytokine rescue, dose response, luminescence, retest (AID 449756); type: functional, cell-based; details: Rattus norvegicus;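 note: cell death triggered by IL-1 beta plus TNF-alpha plus IFN-gamma mixture; protective hits raise ATP signal compared with cytokine alone wells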
X-box-binding protein 1 = target: T2, X-box-binding protein 1 (Homo sapiens, UniProt P17861); type: functional, Cricetulus griseus;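 note: confirmatory dose-response counter-screen serving a CHOP assay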
T2 sequence (P17861 whole entry): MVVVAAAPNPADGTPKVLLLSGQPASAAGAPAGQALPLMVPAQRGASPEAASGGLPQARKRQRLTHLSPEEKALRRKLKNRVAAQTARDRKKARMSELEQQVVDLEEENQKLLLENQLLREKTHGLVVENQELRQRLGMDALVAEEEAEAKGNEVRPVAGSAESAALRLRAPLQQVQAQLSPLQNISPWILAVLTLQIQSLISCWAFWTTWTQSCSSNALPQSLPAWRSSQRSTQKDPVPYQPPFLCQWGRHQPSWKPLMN

Streptococcus = experiment: Group A Streptococcus viability loss, dose response, counter-screen for streptokinase expression inhibitor project, luminescence, BacTiterGlo (AID 1915); type: functional, organism-based;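 note: potency for reduction of bacterial viability or growth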
Streptokinase A = target: T3, Streptokinase A (Streptococcus pyogenes serotype M1, UniProt P10520); experiment: S. pyogenes streptokinase expression inhibitors, potency, dose response, plasminogen activation absorbance, OD405 (AID 1914); type: functional, Streptococcus pyogenes M1 GAS;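 note: secreted streptokinase activity via plasminogen activation per viability signal from cell pellet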
T3 sequence (P10520 whole entry): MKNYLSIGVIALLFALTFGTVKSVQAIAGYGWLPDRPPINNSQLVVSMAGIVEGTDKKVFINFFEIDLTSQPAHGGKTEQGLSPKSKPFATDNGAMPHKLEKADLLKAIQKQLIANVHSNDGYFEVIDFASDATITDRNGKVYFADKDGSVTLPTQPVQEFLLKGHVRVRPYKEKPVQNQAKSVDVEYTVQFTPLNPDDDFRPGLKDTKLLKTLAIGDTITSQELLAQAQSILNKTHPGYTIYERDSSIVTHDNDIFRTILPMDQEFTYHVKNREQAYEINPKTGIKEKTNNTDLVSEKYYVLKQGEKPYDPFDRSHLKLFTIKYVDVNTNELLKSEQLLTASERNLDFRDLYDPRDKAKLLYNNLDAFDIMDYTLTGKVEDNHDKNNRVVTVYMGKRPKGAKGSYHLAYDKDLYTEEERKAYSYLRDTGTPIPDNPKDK

[11] = system: Streptococcus sp. 'group A'; experiment: growth inhibition of control SK(-) GAS strain, dose response, counter-screen for streptokinase expression inhibitor project, luminescence, kanamycin, BacTiterGlo, confirmation (AID 1900); type: functional, organism-based
[12] = target: T4, Calpain-2 catalytic subunit (Sus scrofa, UniProt P43367); experiment: pig calpain II inhibitor potency, dose response, biochemical, fluorogenic peptide substrate (AID 1420); type: functional
T4 sequence (P43367 whole entry): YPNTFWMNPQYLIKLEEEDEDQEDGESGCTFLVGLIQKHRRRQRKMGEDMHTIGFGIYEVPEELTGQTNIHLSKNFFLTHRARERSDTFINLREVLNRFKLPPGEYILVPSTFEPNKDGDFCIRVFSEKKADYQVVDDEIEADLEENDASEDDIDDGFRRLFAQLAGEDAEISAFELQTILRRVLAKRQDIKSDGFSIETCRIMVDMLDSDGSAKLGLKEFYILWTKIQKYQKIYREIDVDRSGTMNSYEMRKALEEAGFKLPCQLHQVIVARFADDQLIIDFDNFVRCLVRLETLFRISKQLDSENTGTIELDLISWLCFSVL

Chain of Peroxisome proliferator-activated receptor gamma/Nuclear receptor coactivator 3 (P37231 whole entry): as the sequence (P37231 whole entry) above
Chain of Peroxisome proliferator-activated receptor gamma/Nuclear receptor coactivator 3 (Q9Y6Q9 whole entry, further chain): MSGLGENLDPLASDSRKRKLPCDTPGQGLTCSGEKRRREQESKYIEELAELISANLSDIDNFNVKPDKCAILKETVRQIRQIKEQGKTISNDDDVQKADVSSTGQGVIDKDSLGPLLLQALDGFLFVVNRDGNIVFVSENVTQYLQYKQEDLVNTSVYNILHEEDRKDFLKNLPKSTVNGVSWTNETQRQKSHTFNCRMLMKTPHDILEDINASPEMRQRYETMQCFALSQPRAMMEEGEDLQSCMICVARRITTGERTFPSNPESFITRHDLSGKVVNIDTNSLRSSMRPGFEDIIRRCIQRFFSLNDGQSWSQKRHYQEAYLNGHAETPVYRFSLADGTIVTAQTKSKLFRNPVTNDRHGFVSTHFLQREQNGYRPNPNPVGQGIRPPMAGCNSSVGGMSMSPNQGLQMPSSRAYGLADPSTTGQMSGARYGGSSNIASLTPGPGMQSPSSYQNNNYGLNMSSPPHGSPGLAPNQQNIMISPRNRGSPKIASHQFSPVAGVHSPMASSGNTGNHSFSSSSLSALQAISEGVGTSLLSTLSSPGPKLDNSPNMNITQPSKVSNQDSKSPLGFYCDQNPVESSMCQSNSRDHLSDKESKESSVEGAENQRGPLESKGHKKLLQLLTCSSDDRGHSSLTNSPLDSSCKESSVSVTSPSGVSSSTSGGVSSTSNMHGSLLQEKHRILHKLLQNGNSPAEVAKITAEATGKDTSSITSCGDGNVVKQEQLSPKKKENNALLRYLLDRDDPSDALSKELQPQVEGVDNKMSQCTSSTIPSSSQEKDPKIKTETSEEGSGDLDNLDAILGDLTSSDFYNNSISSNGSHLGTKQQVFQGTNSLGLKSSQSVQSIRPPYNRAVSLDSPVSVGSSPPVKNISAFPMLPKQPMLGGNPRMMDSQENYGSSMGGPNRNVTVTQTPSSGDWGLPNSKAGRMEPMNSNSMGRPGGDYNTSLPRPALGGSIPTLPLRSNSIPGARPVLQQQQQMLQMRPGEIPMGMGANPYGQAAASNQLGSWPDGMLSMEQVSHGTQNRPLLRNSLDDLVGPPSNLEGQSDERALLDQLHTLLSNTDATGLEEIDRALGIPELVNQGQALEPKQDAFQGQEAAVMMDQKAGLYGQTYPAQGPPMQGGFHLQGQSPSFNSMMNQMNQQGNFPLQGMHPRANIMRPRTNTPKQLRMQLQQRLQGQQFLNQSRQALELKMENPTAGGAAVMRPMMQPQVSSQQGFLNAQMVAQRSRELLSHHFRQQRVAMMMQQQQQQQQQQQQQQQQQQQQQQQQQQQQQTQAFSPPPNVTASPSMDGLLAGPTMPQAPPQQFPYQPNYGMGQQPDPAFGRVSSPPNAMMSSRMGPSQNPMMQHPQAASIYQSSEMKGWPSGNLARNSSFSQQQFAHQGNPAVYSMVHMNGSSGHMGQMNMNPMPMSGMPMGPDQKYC

Q: Which results are given for `CCN(CC)c1ccc(/C=N/c2cc(C)ccc2C)c(O)c1`?
A: EC50 [1]: > 79.4 µM (not active); EC50 [2]: > 79.4 µM (not active); EC50 [3]: > 79.4 µM (not active)

Q: What does the source list for `Cc1ccc(C(=O)Nc2ccc(N3CCCC3)cc2)cc1`?
A: IC50 [4]: 17.9 µM (not active); EC50 [1]: > 79.4 µM (not active); EC50 [2]: > 79.4 µM (not active); EC50 [3]: > 79.4 µM (not active)

Q: With `NC(=O)c1ccsc1NC(=O)CSc1nnc(C2CC2)n1Cc1ccccc1` as the molecule, how does the IC50 (Prothrombin) read?
A: Its IC50 is > 50 µM (not active).

Q: For `O=C(NCc1ccco1)c1ccc(Cl)nc1`, which IC50 [5] is on record?
A: The IC50 was 26.5 µM (active).

Q: What about the IC50 [6] of the same molecule?
A: The IC50 was > 50 µM (inactive).

Q: Which AC50 [7] does the source give for `COc1cccc(CNc2ncnc3cc(Cl)ccc23)c1` here?
A: The AC50 was 3.73 µM (active).

Q: And the AC50 [8]?
A: The AC50 was > 70 µM (inactive).

Q: And the AC50 [9]?
A: The AC50 was 5.85 µM (active).

Q: Which IC50 (Prothrombin) does the source give for `O=C(CSc1nc2nncc-2c(O)[nH]1)N1CCCCC1` here?
A: Its IC50 is > 50 µM (not active).

Q: With `O=[N+]([O-])c1ccc(NC(S)=NCCc2ccc(Cl)cc2)cc1` as the molecule, how does the AC50 [10] read?
A: Its AC50 is 4.1 µM (active).

Q: And the AC50 (INS1)?
A: Its AC50 is 7.38 µM (active).

Q: What about the “Absolute IC50 (XBP1)” value (X-box-binding protein 1) of the same molecule?
A: Its value is 10 µM.

Q: What about the EC50 (Streptococcus) of the same molecule?
A: The EC50 was 33.2 µM (active).

Q: What about the EC50 (Streptokinase A) of the same molecule?
A: Its EC50 is 18.9 µM (active).

Q: And the EC50 [11]?
A: The EC50 was 2.92 µM (active).

Q: And the IC50 [12]?
A: Its IC50 is 1.82 µM (not active).

From ChEMBL document CHEMBL1201862, “PubChem BioAssay data set” (2004)
